Data set [1] can be described thus: Cav-1 peptide solubility in Tris Buffered Saline, pH 7.51 (absorbance at 600 nm). Particulars: for UV (Abs) at dissolution / UV (Abs) after rest: absorbance at 600 nm, 50 mg in 5 mL TBS pH 7.51; for UV (Abs) at dissolution: immediately after dissolution for insoluble peptides, after 10 minutes for soluble peptides; for UV (Abs) after rest: again after 10 minutes (APi2348 15 min, APi2352 5 min, APi2353 15 min, APi2345 only after 20 min). The format is physicochemical. The protocol: In order to determine which peptides may be most soluble in a liquid formulation, 50 mg of each Cav-1 peptide was dissolved in 5 mL of Tris Buffered Saline, pH 7.51. Each sample was vortexed to help the sample dissolve completely. The absorbance at 600 nm was measured immediately after dissolution of the peptides for insoluble peptides, or after 10 minutes for soluble peptides. Absorbance was measured again after 10 minutes for insoluble peptides except for samples APi2348, APi2352, APi2353 which were measured a second time at 15 minutes, 5 minutes, or 15 minutes after dissolution, respectively.

In data set [2] the test system is Idiopathic Pulmonary Fibrosis (IPF) cell line 2051. Briefly: Western blot of SMA and tubulin in IPF cells treated with Cav-1 peptides. The format is cell-based. Conditions: 2 days treatment, 10 uM peptide (LTI-03 10 and 90 uM), ImageJ ratio (FIG. 2). The protocol:
Cav-1 peptides were dissolved in DMSO to make 10 mM stock solutions. 10 mM stock solutions of each peptide were then diluted in HBSS to make 900 μM working stock solutions. The DMSO resuspended polypeptides as well as the working stocks were stored at −20 deg C. For culture media, working stocks were added to DMEM culture media to a final concentration of 10 μM of the Cav-1 peptide.
Idiopathic Pulmonary Fibrosis (IPF) cell line 2051 was purchased and IPF cells from the fourth passage were seeded in 100 mm plates containing DMEM, 10% FBS, and 1% P/S. IPF cells were washed with 4 mL DMEM+1% P/S and serum starved overnight. Cells were then treated for 2 days with either 44 uL HBSS (negative control), 10 uM LTI-03 (SEQ ID NO: 2), 90 uM LTI-03 (positive control), 10 uM APi2350, 10 uM APi2354, 10 uM APi2355, 10 uM APi2356 or with 20 uL of DMSO (negative control).
After 2 days of treatment, cells were washed once in cold, sterile HBSS. HBSS was removed, and 150 uL of lysis buffer with protease inhibitor cocktail was added to the cells. Cells were incubated with lysis buffer for 10 minutes. Cell lysates were scraped from the plates and collected. Cell lysates were then sonicated twice. Following sonication, the lysates were centrifuged at 13,000 RPM for 20 minutes. Lysates were then flash frozen in liquid nitrogen, thawed, vortexed, and centrifuged again at 13,000 RPM for 30 minutes. The supernatant was then collected and the pellet was discarded. The concentration of cell lysates was then determined by BCA assay.
Western blots were performed to evaluate the presence the effects of treatments. Briefly, 12 ug of each lysate was run on a 10% polyacrylamide gel. The gel was then transferred to a membrane and washed. Primary antibodies against smooth muscle actin (SMA) and Tubulin Results of the western blot can be seen in FIG. 1. The treatment for each of the lysates in the pictured lanes are: 1: Untreated, 2: 10 μM LTI-03, 3: 90 μM LTI-03, 4: 10 μM APi2350, 5: 10 μM APi2354, 6: 10 μM APi 2355, 7: 10 μM APi2356, and 8: DMSO.
Western blots were photographed and analyzed with ImageJ to determine a ratio of smooth muscle actin to tubulin (FIG. 2).
In general terms: Immunoblotting shows a protein as a band on a membrane.

For data set [3], the system named is AEC2 cells of non-specific interstitial pneumonia (NSIP) precision cut lung slices. Briefly: Lysotracker staining of AEC2 cells in NSIP precision cut lung slices. The format is cell-based. Conditions: NSIP PCLS, 48 h after a single treatment with 10, 100, or 500 μM. The source says:
(§1) To assess the effect of Cav-1 peptide APi2355 (SEQ ID NO: 8) on AEC2 cell viability, surgical biopsies were obtained for the preparation of non-specific interstitial pneumonia precision cut lung slices (PCLS). One individual with non-specific interstitial pneumonia (NSIP) and another with end-stage IPF were processed. Lysotracker staining, which stains acidic compartments in live cells and selectively accumulates in the lamellar bodies of lung AEC2 cells (Van der Velden et al., 2013), was performed. Cav-1 peptide was suspended in DMEM/5% FBS, and PCLS slices (n=5 replicates/treatment group) were treated with 10, 100, or 500 μM LTI-03 or APi2355 (Var 55). Lysotracker staining (Green DND-26, Promega) was performed on NSIP PCLS 48 h after a single treatment. […] In addition, lysotracker staining (Red DND-99, Promega) was performed on end-stage IPF on days 1, 2, 3, 5, and 7 following daily treatment with LTI-03 or APi2355.

Data set [4] deals with AEC2 cells of end-stage IPF precision cut lung slices. Briefly: Lysotracker staining of AEC2 cells in end-stage IPF precision cut lung slices. In kind it is cell-based. Particulars: end-stage IPF PCLS, daily treatment, staining on days 1, 2, 3, 5, and 7; 10, 100, or 500 μM.
From the text: as §1

Where [5] appears, read: TBS pH 7.51, compared to other tested peptides.

Non-standard residues stand in square brackets, D forms with d. Residues, ends and D or L forms follow the SMILES beside them. No end group written: not given here. Orn = NCCC[C@H](N)C(=O)O

Data on 14 compounds can be found in patent US12497431B2, “Modified peptide fragments of Cav-1 protein and the use thereof in the treatment of fibrosis” (Rein Therapeutics, Inc., priority 2018, dated 2025).

As for `CC(C)[C@H](NC(=O)[C@@H](NC(=O)[C@H](Cc1ccccc1)NC(=O)[C@@H](NC(=O)[C@@H](NC(=O)[C@H](Cc1ccccc1)NC(=O)[C@H](CO)NC(=O)[C@H](C)NC(=O)[C@@H](N)CCCN)[C@@H](C)O)[C@@H](C)O)[C@@H](C)O)C(=O)N[C@H](C(=O)N[C@@H](CCCCN)C(N)=O)[C@@H](C)O` [APi2348, OASFTTFTVTK-NH2] (H-[Orn]ASFTTFTVTK-NH2), in data set [1], the “UV (Abs) at dissolution” value was determined as 0.846.

As to `CC(C)[C@H](NC(=O)[C@@H](NC(=O)[C@H](Cc1ccccc1)NC(=O)[C@@H](NC(=O)[C@@H](NC(=O)[C@H](Cc1ccccc1)NC(=O)[C@H](CO)NC(=O)[C@H](C)NC(=O)[C@H](CCCCN)NC(=O)CNC(=O)[C@H](CCC(=O)O)NC(=O)[C@@H](C)NC(=O)[C@@H](C)N)[C@@H](C)O)[C@@H](C)O)[C@@H](C)O)C(=O)N[C@H](C(=O)N[C@@H](CCCCN)C(=O)NCC(=O)N[C@@H](CO)C(=O)N[C@H](C)C(=O)N[C@H](C)C(N)=O)[C@@H](C)O` [APi2354, aaEGKASFTTFTVTKGSaa-NH2] (H-[dA][dA]EGKASFTTFTVTKGS[dA][dA]-NH2), the “expression of SMA relative to tubulin” value in data set [2] is “increased the expression of SMA relative to tubulin”. Further, the “solubility at pH 7.51 (in words)” value in data set [1] (setting [5]) is on record as “increased solubility”. Moreover, in data set [1], the “UV (Abs) after rest” value is on record as 0.007 and the “UV (Abs) at dissolution” value came to 0.008.

Consider `CC(=O)N[C@H](C)C(=O)N[C@H](C)C(=O)N[C@@H](CCC(=O)O)C(=O)NCC(=O)N[C@@H](CCCCN)C(=O)N[C@@H](C)C(=O)N[C@@H](CO)C(=O)N[C@@H](Cc1ccccc1)C(=O)N[C@H](C(=O)N[C@H](C(=O)N[C@@H](Cc1ccccc1)C(=O)N[C@H](C(=O)N[C@H](C(=O)N[C@H](C(=O)N[C@@H](CCCCN)C(=O)NCC(=O)N[C@@H](CO)C(=O)N[C@H](C)C(=O)N[C@H](C)C(N)=O)[C@@H](C)O)C(C)C)[C@@H](C)O)[C@@H](C)O)[C@@H](C)O` [APi2355, Ac-aaEGKASFTTFTVTKGSaa-NH2] (Ac-[dA][dA]EGKASFTTFTVTKGS[dA][dA]-NH2), for which the “AEC2 cell viability (lysotracker staining)” value in data set [3] is recorded as “strong dose-dependent increase”. Also, the “expression of SMA relative to tubulin” value in data set [2] was “increased the expression of SMA relative to tubulin”. Besides, the “solubility at pH 7.51 (in words)” value in data set [1] (setting [5]) was “increased solubility”. Further, in data set [1], the “UV (Abs) after rest” value was found to be 0.000 and the “UV (Abs) at dissolution” value worked out at 0.000. Besides, in data set [4], the “AEC2 cell viability (lysotracker staining)” value is listed as “observed out to day 3”.

Take “Ac-DSGKASFTTFTVTK-NH2 [APi2353, Ac-DSGKASFTTFTVTK-NH2]”: in data set [1], the “UV (Abs) after rest” value came out at 3.000 and the “UV (Abs) at dissolution” value stood at 3.000.

Consider “Ac-KASFTTFTVTK-NH2 [APi2347, Ac-KASFTTFTVTK-NH2]”, for which, in data set [1], the “UV (Abs) after rest” value came to 2.284 and the “UV (Abs) at dissolution” value turned out to be 2.347.

Consider “Ac-KASFTTFTVTKGS-NH2 [APi2351, Ac-KASFTTFTVTKGS-NH2]”, for which, in data set [1], the “UV (Abs) after rest” value was determined as 2.377 and the “UV (Abs) at dissolution” value is on record as 2.523.

As for Ac-OASFTTFTVTK-NH2 [APi2349], in data set [1], the “UV (Abs) after rest” value is 1.827 and the “UV (Abs) at dissolution” value worked out at 1.870.

Take Ac-OASFTTFTVTOS-NH2 [APi2357]: the “UV (Abs) at dissolution” value in data set [1] is reported as 2.293.

On to “H-DSGKASFTTFTVTK-NH2 [APi2352, DSGKASFTTFTVTK-NH2]”, for which, in data set [1], the “UV (Abs) after rest” value was determined as 2.398 and the “UV (Abs) at dissolution” value worked out at 2.468.

As to H-FTTFTVT-NH2 [APi2344, FTTFTVT-NH2], in data set [1], the “UV (Abs) after rest” value came out at 1.437 and the “UV (Abs) at dissolution” value is reported as 2.409.

Turning to H-FTTFTVTK-NH2 [APi2345, FTTFTVTK-NH2], in data set [1] (setting [5]), the “solubility at pH 7.51 (in words)” value is listed as “dissolution was incomplete”. In addition, the “UV (Abs) after rest” value in data set [1] was 1.058.

“H-KASFTTFTVTK-NH2 [APi2346, KASFTTFTVTK-NH2]”: in data set [1], the “UV (Abs) after rest” value is 1.622 and the “UV (Abs) at dissolution” value is on record as 1.648.

Regarding KASFTTFTVTKGS-NH2 [APi2350], the “expression of SMA relative to tubulin” value in data set [2] is on record as “increased the expression of SMA relative to tubulin”. For the same compound, the “solubility at pH 7.51 (in words)” value in data set [1] (pH 7.51) is given as “increased solubility”.

As to “OASFTTFTVTOS-NH2 ([Orn]ASFTTFTVT[Orn]S-NH2; N-terminus assumed; SMILES CC(C)[C@H](NC(=O)[C@@H](NC(=O)[C@H](Cc1ccccc1)NC(=O)[C@@H](NC(=O)[C@@H](NC(=O)[C@H](Cc1ccccc1)NC(=O)[C@H](CO)NC(=O)[C@H](C)NC(=O)[C@@H](N)CCCN)[C@@H](C)O)[C@@H](C)O)[C@@H](C)O)C(=O)N[C@H](C(=O)N[C@@H](CCCN)C(=O)N[C@@H](CO)C(N)=O)[C@@H](C)O) [APi2356, O = Ornithine]”, the “expression of SMA relative to tubulin” value in data set [2] was “increased the expression of SMA relative to tubulin”. The “UV (Abs) at dissolution” value in data set [1] came to 0.001. Also, the “solubility at pH 7.51 (in words)” value in data set [1] (pH 7.51) was “increased solubility”.
